Data from US20220242846A1, “ISOINDOLINONE COMPOUNDS” (Monte Rosa Therapeutics AG, priority 2019, published 2022).
Read-outs that look alike come from different tables or passages of the source.

What was measured:
[1] = biological target: T1, Full length wild-type cereblon CRBN (Homo sapiens, UniProt Q96SW2); experiment: Fluorescence polarization (FP) assay indicating cereblon binding; details: CRBN 80.0 nM, fluorescent probe 5 nM, FP measured after 12 hours; read-out: rFP IC50
T1 construct: Full length wild-type cereblon CRBN (80.0 nM, 10 μL) was incubated in assay buffer
Method in brief: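 Full-length wild-type human CRBN (80.0 nM) preincubated 30 min at room temperature with compound (12-point curve, 300-0.937 or 3000-9.3 nM) in HEPES pH 8.0, NaCl, TCEP, Tween 20. Thalidomide-based Cy5-type probe then added at 5 nM final; FP read after 12 h (ex 590, em 675 nm), normalized to DMSO, IC50 derived.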

GSPT1 = GSPT1 (Homo sapiens, UniProt P15170+Q96SW2); experiment: Immunofluorescence assay for GSPT1 degradation in CAL-51 cells; assay type: cell-based; parameters: CAL-51 cells were purchased from DSMZ (cat. Number ACC302); endogenous in cells; host or cells: CAL-51 (DSMZ ACC302); details: compound treatment 6 hours
Method in brief: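 CAL-51 cells on fibronectin-coated plates treated 6 h with compound (30 μM to 0.1 nM); fixed, stained with anti-GSPT1/Alexa-488, phalloidin and DAPI, imaged by high-content microscopy. Mean GSPT1 intensity per cell normalized to controls; DC50 by non-linear regression.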

[2] = test system: Human mammary epithelial cells (HMEC) engineered to express c-myc tagged with EGFP; experiment: 3D spheroid assay, myc-HMEC (CellTiterGlo3D viability); assay type: cell-based
Procedure: (§1) 3D Spheroid Experiments—HMEC
(§2) Human mammary epithelial cells (HMEC) were engineered to express either c-myc tagged with EGFP or EGFP alone (non myc) (analogous but distinct from Kessler J D et al, Science. 2012 Jan. 20; 335(6066):348-53. doi: 10.1126/science.1212728; Hsu T Y et al, Nature. 2015 Sep. 17; 525(7569):384-8. doi: 10.1038/nature14985). The engineered cells were seeded at 1000 (myc) or 4000 (non myc) cells/well in a 384 ultra-low attachment plate in a total volume of 40 µL, HMEC cell culture media (DMEM/F12+10% HI-FBS+15 mM HEPES+0.5 ug/ml Hydrocortisone+10 ug/ml Insulin+20 ng/ml EGF). Plates were spun at 1200 rpm for 5 minutes at room temperature to ensure that cells have gathered in the middle of the well and incubated at 37° C. for 48 hrs before firing with compounds. On Day 2 (48 h post seeding) cells were imaged (brightfield and EGFP fluorescence) using the Celigo imaging cytometer prior to firing compounds. For primary screens, compounds were added at three concentrations (1.25, 10 and 30 uM) in a volume of 120 nL using the ECHO acoustic dispenser and spun at 2000 rpm for 2 minutes at room temperature before incubating at 37° C. for 5 days. […] On Day 7, prior to measuring cell viability using CellTiterGlo3D, cells were imaged (brightfield and EGFP fluorescence) on the Celigo imaging cytometer. The CellTiterGlo3D reagent is added at 30uL/well and incubated at room temperature for 30mins After 30mins of incubation, luminescence readings were recorded using the Perkin Elmer EnVision reader.

[3] = test system: Human mammary epithelial cells (HMEC) engineered to express EGFP alone (non myc); experiment: 3D spheroid assay, non myc-HMEC (CellTiterGlo3D viability); assay type: cell-based; details: 120 h, 3D spheroids, 5 days with compound, read-out: Code: EC50 value in the non myc-HMEC assay
Procedure: as §1, §2

[4] = read-out: Code: activity for GSPT1 degradation (DC50)
[5] = Homo sapiens, HMEC, 120 h, 3D spheroids, 5 days with compound, read-out: Code: EC50 value in the myc-HMEC assay
[6] = myc-HMEC 3D spheroids (compounds with code D and E), 5 days, read-out: EC50

GSPT1, sequence (P15170 whole entry): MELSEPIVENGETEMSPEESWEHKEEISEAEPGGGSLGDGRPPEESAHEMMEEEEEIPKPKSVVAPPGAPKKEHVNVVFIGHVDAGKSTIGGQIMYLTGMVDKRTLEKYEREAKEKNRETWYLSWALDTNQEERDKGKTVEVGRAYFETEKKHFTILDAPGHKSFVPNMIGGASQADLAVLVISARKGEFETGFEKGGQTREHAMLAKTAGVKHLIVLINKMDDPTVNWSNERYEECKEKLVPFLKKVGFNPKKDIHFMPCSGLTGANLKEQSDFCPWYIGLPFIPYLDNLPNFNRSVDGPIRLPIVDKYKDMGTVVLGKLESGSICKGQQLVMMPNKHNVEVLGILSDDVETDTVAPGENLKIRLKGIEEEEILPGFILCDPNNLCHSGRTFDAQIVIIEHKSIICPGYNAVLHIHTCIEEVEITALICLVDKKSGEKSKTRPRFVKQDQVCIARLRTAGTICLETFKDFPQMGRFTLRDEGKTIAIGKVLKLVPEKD
GSPT1, sequence (Q96SW2 whole entry): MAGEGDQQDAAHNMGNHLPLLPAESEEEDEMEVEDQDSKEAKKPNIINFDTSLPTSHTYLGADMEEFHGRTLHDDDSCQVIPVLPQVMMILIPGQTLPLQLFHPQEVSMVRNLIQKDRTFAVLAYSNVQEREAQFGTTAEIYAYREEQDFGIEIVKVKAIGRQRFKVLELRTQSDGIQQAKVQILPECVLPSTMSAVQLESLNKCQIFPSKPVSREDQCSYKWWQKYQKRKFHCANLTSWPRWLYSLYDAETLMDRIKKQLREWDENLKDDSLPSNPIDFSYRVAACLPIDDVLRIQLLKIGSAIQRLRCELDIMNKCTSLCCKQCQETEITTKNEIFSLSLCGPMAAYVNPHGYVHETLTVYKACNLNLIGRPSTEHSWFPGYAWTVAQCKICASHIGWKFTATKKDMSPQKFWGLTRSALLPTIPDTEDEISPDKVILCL
GSPT1, sequence (Q16531 2-1140 partner limits assumed): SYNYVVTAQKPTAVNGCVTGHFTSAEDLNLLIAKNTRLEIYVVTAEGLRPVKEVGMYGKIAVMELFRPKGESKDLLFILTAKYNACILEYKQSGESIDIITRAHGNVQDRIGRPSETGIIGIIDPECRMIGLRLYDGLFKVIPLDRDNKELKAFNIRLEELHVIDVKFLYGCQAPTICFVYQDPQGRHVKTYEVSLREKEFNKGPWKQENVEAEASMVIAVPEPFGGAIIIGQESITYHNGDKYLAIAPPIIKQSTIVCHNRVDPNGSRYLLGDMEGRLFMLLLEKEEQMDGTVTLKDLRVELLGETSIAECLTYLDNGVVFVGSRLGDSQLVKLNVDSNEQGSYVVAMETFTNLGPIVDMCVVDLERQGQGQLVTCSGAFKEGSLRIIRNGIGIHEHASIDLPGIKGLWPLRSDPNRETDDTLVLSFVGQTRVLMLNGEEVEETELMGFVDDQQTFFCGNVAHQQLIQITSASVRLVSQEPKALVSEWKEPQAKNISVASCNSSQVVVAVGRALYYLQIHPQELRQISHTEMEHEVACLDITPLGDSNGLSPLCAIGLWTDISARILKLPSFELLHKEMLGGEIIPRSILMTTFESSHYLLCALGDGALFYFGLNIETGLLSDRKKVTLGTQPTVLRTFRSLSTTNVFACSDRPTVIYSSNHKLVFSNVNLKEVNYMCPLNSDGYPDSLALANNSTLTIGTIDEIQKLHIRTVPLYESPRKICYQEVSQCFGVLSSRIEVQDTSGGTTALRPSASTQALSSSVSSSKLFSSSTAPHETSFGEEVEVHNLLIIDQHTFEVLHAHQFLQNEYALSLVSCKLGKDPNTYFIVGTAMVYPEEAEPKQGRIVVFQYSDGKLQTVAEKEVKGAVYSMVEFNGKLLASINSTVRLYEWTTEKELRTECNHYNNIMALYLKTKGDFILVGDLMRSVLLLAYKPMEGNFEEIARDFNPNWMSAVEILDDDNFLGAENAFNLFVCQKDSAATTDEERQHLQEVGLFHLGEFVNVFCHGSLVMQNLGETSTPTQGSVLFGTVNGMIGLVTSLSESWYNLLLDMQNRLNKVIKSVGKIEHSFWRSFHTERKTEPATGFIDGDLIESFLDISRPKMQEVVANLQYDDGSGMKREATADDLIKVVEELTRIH
T1 sequence (Q96SW2 whole entry): as the sequence (Q96SW2 whole entry) above

Compound	IC50 [1] [nM]	DC50 (GSPT1; [4]) [nM]	DC50 (GSPT1; GSPT1 degradation, read-out: DC50) [nM]	EC50 [2, 5] [nM]	EC50 [3] [nM]	EC50 [2, 6] [nM]
O=C1CCC(N2Cc3ccc(CNC(=O)Nc4cccc(C(F)(F)F)c4)cc3C2=O)C(=O)N1 (centres unmarked) [Compound 47]	1080	≤ 100	–	400 to 2000	> 10000	544
O=C1CCC(N2Cc3ccc(CNC(=O)NC4CCCc5ccccc54)cc3C2=O)C(=O)N1 (centres unmarked) [Compound 40]	566	> 300	–	> 2000	> 10000	–
O=C1CCC(N2Cc3ccc(CNC(=O)NCc4ccc(C(F)(F)F)cc4)cc3C2=O)C(=O)N1 (centres unmarked) [Compound 65]	637	> 300	–	> 2000	> 10000	–
COc1ccc(CNC(=O)NCc2ccc3c(c2)C(=O)N(C2CCC(=O)NC2=O)C3)cc1 (centres unmarked) [Compound 52]	477	> 300	–	> 2000	> 10000	–
CCNC(=O)NCc1ccc2c(c1)C(=O)N(C1CCC(=O)NC1=O)C2 (centres unmarked) [Compound 15]	902	> 300	–	> 2000	> 10000	–
CC(C)c1ccc(NC(=O)NCc2ccc3c(c2)C(=O)N(C2CCC(=O)NC2=O)C3)cc1 (centres unmarked) [Compound 57]	373	> 300	–	> 2000	> 10000	–
C[C@@H](NC(=O)NCc1ccc2c(c1)C(=O)N(C1CCC(=O)NC1=O)C2)c1ccccc1 (some centres unmarked) [Compound 54]	471	> 300	–	> 2000	> 10000	–
O=C1CCC(N2Cc3ccc(CNC(=O)NC4CCCCC4)cc3C2=O)C(=O)N1 (centres unmarked) [Compound 29]	1140	> 300	–	> 2000	> 10000	–
O=C1CCC(N2Cc3ccc(CNC(=O)NCc4ccccc4)cc3C2=O)C(=O)N1 (centres unmarked) [Compound 24]	1590	> 300	–	> 2000	> 10000	–
C[C@H](NC(=O)NCc1ccc2c(c1)C(=O)N(C1CCC(=O)NC1=O)C2)c1ccccc1 (some centres unmarked) [Compound 55]	497	> 300	–	> 2000	> 10000	–
N#Cc1ccc(NC(=O)NCc2ccc3c(c2)C(=O)N(C2CCC(=O)NC2=O)C3)cc1 (centres unmarked) [Compound 74]	196	> 300	–	> 2000	> 10000	–
CC(C)NC(=O)NCc1ccc2c(c1)C(=O)N(C1CCC(=O)NC1=O)C2 (centres unmarked) [Compound 12]	960	> 300	–	> 2000	> 10000	–
CCCCCCNC(=O)NCc1ccc2c(c1)C(=O)N(C1CCC(=O)NC1=O)C2 (centres unmarked) [Compound 13]	944	> 300	–	> 2000	> 10000	–
CC(C)(C)NC(=O)NCc1ccc2c(c1)C(=O)N(C1CCC(=O)NC1=O)C2 (centres unmarked) [Compound 10]	763	> 300	–	> 2000	> 10000	–
O=C1CCC(N2Cc3ccc(CNC(=O)Nc4ccc(-c5ccccc5)cc4)cc3C2=O)C(=O)N1 (centres unmarked) [Compound 71]	333	≤ 100	–	≤ 400	> 10000	39
COCCNC(=O)NCc1ccc2c(c1)C(=O)N(C1CCC(=O)NC1=O)C2 (centres unmarked) [Compound 72]	322	> 300	–	> 2000	> 10000	–

Continued, in another order:

IC50 [1] [nM]	DC50 (GSPT1; [4]) [nM]	DC50 (GSPT1; GSPT1 degradation, read-out: DC50) [nM]	Compound	EC50 [2, 5] [nM]	EC50 [3] [nM]	EC50 [2, 6] [nM]
254	> 300	–	O=C1CCC(N2Cc3ccc(CNC(=O)Nc4ccc(Cl)cc4)cc3C2=O)C(=O)N1 (centres unmarked) [Compound 2]	> 2000	> 10000	–
339	> 300	–	COc1ccc(NC(=O)NCc2ccc3c(c2)C(=O)N(C2CCC(=O)NC2=O)C3)cc1 (centres unmarked) [Compound 5]	> 2000	> 10000	–
284	> 300	–	Cc1ccc(F)c(NC(=O)NCc2ccc3c(c2)C(=O)N(C2CCC(=O)NC2=O)C3)c1 (centres unmarked) [Compound 67]	> 2000	> 10000	–
441	> 300	–	Cc1ccc(F)cc1NC(=O)NCc1ccc2c(c1)C(=O)N(C1CCC(=O)NC1=O)C2 (centres unmarked) [Compound 62]	> 2000	> 10000	–
290	100 to 300	200	Cc1ccc(NC(=O)NCc2ccc3c(c2)C(=O)N(C2CCC(=O)NC2=O)C3)cc1C (centres unmarked) [Compound 68]	400 to 2000	> 10000	458
1040	> 300	–	O=C1CCC(N2Cc3ccc(CNC(=O)Nc4ccccc4)cc3C2=O)C(=O)N1 (centres unmarked) [Compound 1]	> 2000	> 10000	–
492	> 300	–	Cc1cccc(CNC(=O)NCc2ccc3c(c2)C(=O)N(C2CCC(=O)NC2=O)C3)c1 (centres unmarked) [Compound 63]	> 2000	> 10000	–
719	> 300	–	O=C1CCC(N2Cc3ccc(CNC(=O)Nc4ccccc4F)cc3C2=O)C(=O)N1 (centres unmarked) [Compound 48]	> 2000	> 10000	–
508	> 300	–	Cc1cc(Cl)ccc1NC(=O)NCc1ccc2c(c1)C(=O)N(C1CCC(=O)NC1=O)C2 (centres unmarked) [Compound 32]	> 2000	> 10000	–
211	> 300	–	N#Cc1cccc(NC(=O)NCc2ccc3c(c2)C(=O)N(C2CCC(=O)NC2=O)C3)c1 (centres unmarked) [Compound 73]	> 2000	> 10000	–
400	> 300	–	O=C1CCC(N2Cc3ccc(CNC(=O)Nc4cccc(Cl)c4)cc3C2=O)C(=O)N1 (centres unmarked) [Compound 3]	> 2000	> 10000	–
587	> 300	–	O=C1CCC(N2Cc3ccc(CNC(=O)Nc4ccc(F)c(F)c4)cc3C2=O)C(=O)N1 (centres unmarked) [Compound 39]	> 2000	> 10000	–
1230	> 300	–	CC(C)(C)c1ccccc1NC(=O)NCc1ccc2c(c1)C(=O)N(C1CCC(=O)NC1=O)C2 (centres unmarked) [Compound 11]	> 2000	> 10000	–
483	> 300	–	O=C1CCC(N2Cc3ccc(CNC(=O)Nc4ccccc4Cl)cc3C2=O)C(=O)N1 (centres unmarked) [Compound 4]	> 2000	> 10000	–
464	> 300	–	COc1ccc(NC(=O)NCc2ccc3c(c2)C(=O)N(C2CCC(=O)NC2=O)C3)c(C)c1 (centres unmarked) [Compound 23]	> 2000	> 10000	–
612	> 300	–	Cc1cccc(C)c1NC(=O)NCc1ccc2c(c1)C(=O)N(C1CCC(=O)NC1=O)C2 (centres unmarked) [Compound 25]	> 2000	> 10000	–
481	> 300	–	O=C1CCC(N2Cc3ccc(CNC(=O)Nc4cccc(F)c4)cc3C2=O)C(=O)N1 (centres unmarked) [Compound 34]	> 2000	> 10000	–
757	> 300	–	Cc1cccc(NC(=O)NCc2ccc3c(c2)C(=O)N(C2CCC(=O)NC2=O)C3)c1 (centres unmarked) [Compound 43]	> 2000	> 10000	–
324	> 300	–	COc1ccccc1NC(=O)NCc1ccc2c(c1)C(=O)N(C1CCC(=O)NC1=O)C2 (centres unmarked) [Compound 7]	> 2000	> 10000	–
467	> 300	–	COc1cccc(NC(=O)NCc2ccc3c(c2)C(=O)N(C2CCC(=O)NC2=O)C3)c1 (centres unmarked) [Compound 6]	> 2000	> 10000	–
672	> 300	–	Cc1ccccc1NC(=O)NCc1ccc2c(c1)C(=O)N(C1CCC(=O)NC1=O)C2 (centres unmarked) [Compound 37]	> 2000	> 10000	–
